Reference: paper PMC11273431, “Isolation, Characterization, and Functional Properties of Antioxidant Peptides from Mulberry Leaf Enzymatic Hydrolysates” (Antioxidants, 2024)

What was measured:
Format in all cases: cell-based
HepG2 cells [1] = experiment: Cell viability, CCK-8; conditions: 160 μM H2O2, 24 h
Experimental: HepG2 cells were cultured in a complete medium (90% DMEM + 10% FBS + 100 units/mL penicillin and 100 μg/mL streptomycin) at 37 °C, 5% CO2, and 90% relative humidity. The Cell Counting Kit-8 (CCK-8) Assay Kit was used to detect the effect of H2O2 and peptides on cell viability. HepG2 cells (1 × 10^5 cells/mL) were pre-seeded in a 96-well culture plate overnight and then treated with H2O2 and peptides at 37 °C for 24 h. Cell viability was assessed with the CCK-8 kit (Item No. BS350C) according to the protocol supplied by the manufacturer.

HepG2 cells [2] = experiment: Apoptosis, Annexin V-FITC/PI flow cytometry; conditions: 5–10 μg/mL pretreatment 6 h, then H2O2 160 μM 24 h
Experimental: HepG2 cells were treated as in Section 2.10. After that, cells were collected, rinsed twice with PBS, and then resuspended in Apoptosis Detection Staining solution (containing 2 μL of Annexin V-FITC dye, 5 μL of PI dye, and 100 μL of Binding buffer).
After 15 min of dark incubation at room temperature, cells were analyzed for their apoptotic status (Ex = 488 nm, FL1 EM = 515 nm, FL2 EM = 560 nm) using the BD Fortessa flow cytometer (Becton Dickinson, Franklin Lakes, NJ, USA), and the data were analyzed with Flowjo software 10.0.

ROS in HepG2 cells = experiment: ROS levels, DCFH-DA fluorescence; conditions: 5–10 μg/mL pretreatment 6 h, then H2O2 160 μM 24 h; p < 0.01
Experimental: HepG2 cells were treated as in Section 2.10. After that, the supernatant was discarded, and cells were gently washed twice with PBS. Subsequently, the cells were incubated with DMEM containing 10 μM DCFH2-DA at 37 °C for 20 min. After the incubation, the cells were carefully washed twice with PBS, and then 1 mL of DMEM was added, after which the cells were observed under a fluorescence microscope.
The contents of ROS were indicated by DCF fluorescence and quantified using excitation and emission filters of 488 and 525 nm, respectively. The ROS levels were expressed as a percentage of the blank control values.

SOD = SOD activity in HepG2 cells; conditions: 5–10 μg/mL pretreatment 6 h, then H2O2 160 μM 24 h; p < 0.01
Experimental: (§1) First, HepG2 cells (1 × 10^5 cells/mL) in a volume of 2 mL were seeded in a 6-well culture plate and incubated at 37 °C for 24 h. Experimental grouping and treatments were the same as in Section 2.9. Next, cells were collected, and cell lysis was performed using RIPA cell lysis solution. The protein concentration in cell lysates was determined by the BCA protein assay kit. SOD (Item No. A001-3-2) and CAT (Item No. A007-1-1) activity assays were carried out according to the instructions provided with the corresponding assay kits.

HepG2 cells [3] = experiment: JC-1 staining, mitochondrial membrane potential; conditions: 5–10 μg/mL pretreatment 6 h, then H2O2 160 μM 24 h; for JC-1 green fluorescence: fluorescence microscopy; for JC-1 red/green fluorescence ratio: microplate reader, versus H2O2 damage group
Experimental: (§2) HepG2 cells were treated as in Section 2.10. Hoechst 33258 (Item No. C0021) and JC-1 (Item No. M8650) staining was performed according to the instructions provided in the staining kit.
After JC-1 staining, the samples were examined under a fluorescence microscope. […] The red/green fluorescence ratio can be considered a direct indicator of the state of mitochondrial polarization.

CAT = CAT activity in HepG2 cells; conditions: 5–10 μg/mL pretreatment 6 h, then H2O2 160 μM 24 h; p < 0.01
Experimental: as §1

HepG2 cells [4] = experiment: Hoechst 33258 staining, chromatin damage; conditions: 5–10 μg/mL pretreatment 6 h, then H2O2 160 μM 24 h; fluorescence microscopy
Experimental: as §2
Hoechst 33258 staining was directly observed using a fluorescence microscope.

HepG2 cells [5] = experiment: Protective effect against H2O2-induced oxidative damage, CCK-8; conditions: peptide 100 μg/mL pretreatment 6 h, then H2O2 160 μM 24 h
Experimental: We first established a H2O2-induced oxidative damage model in HepG2 cells. HepG2 cells (1 × 10^5 cells/mL) in a volume of 100 μL were seeded in a 96-well culture plate and incubated at 37 °C for 24 h. The control group and damage group received 100 μL of DMEM, the positive control group received 100 μL of 100 μg/mL Trolox, and the experimental group received 100 μL of DMEM containing different concentrations of peptides.
After culturing for another 6 h, the experimental and damage groups were exposed to H2O2 (160 μM) for 24 h, while the control group received an equal volume of DMEM. Finally, cell viability was measured following the procedures in Section 2.8.

Row | Compound | Cell survival rate (HepG2 cells [1]) [%] | Apoptosis rate (HepG2 cells [2]) | Cellular DCF fluorescence intensity (ROS) (ROS in HepG2 cells) | SOD activity (SOD) | JC-1 green fluorescence (HepG2 cells [3]) | JC-1 red/green fluorescence ratio (HepG2 cells [3]) | CAT activity (CAT) | Hoechst 33258 nuclear fluorescence (chromatin damage) (HepG2 cells [4]) | Mitigating effect on H2O2-induced oxidative damage (cell survival rate) (HepG2 cells [5])
1 | OO [Peptide H2O2, hydrogen peroxide] | ~50 |  |  |  |  |  |  |  | 
2 | EGDAGAQGPPGPAGPAGER [Peptide P6] |  | significantly reduced the apoptosis rate | significantly reduced | significant increase | reduced green fluorescence | effectively alleviated | significant increase | reduced blue fluorescence and fewer bright spots | significantly better than those of the other peptides
3 | RPGPSPGVGAPGK [Peptide P7] |  | significantly reduced the apoptosis rate | significantly reduced | significant increase | reduced green fluorescence | effectively alleviated | significant increase | reduced blue fluorescence and fewer bright spots | significantly better than those of the other peptides
